Data from ChEMBL document CHEMBL1201862, “PubChem BioAssay data set” (2004).
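Five concentrations, 48 hours, 96-well plates. Here, GI50 denotes the concentration required for 50% inhibition of growth.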 Activity calls are given as the source filed them. Rule as the data show it: active = GI50 up to about 1.1 µM and inactive = higher.

What was measured:
Assay in all cases: inhibition of tumour cell growth, NCI panel, 48 h
[1] = test system: IGROV-1
[2] = test system: CCRF-CEM
[3] = test system: SNB-19
[4] = test system: K562
[5] = test system: OVCAR-3
[6] = test system: RXF 393
[7] = test system: HOP-92
[8] = test system: NCI-H460
[9] = test system: SK-MEL-28
[10] = test system: HOP-62
[11] = test system: SW-620
[12] = test system: COLO 205
[13] = test system: LOX IMVI
[14] = test system: A549
[15] = test system: OVCAR-4
[16] = test system: MOLT-4
[17] = test system: NCI-H226
[18] = test system: HCT-15
[19] = test system: HL-60
[20] = test system: NCI-H522

Structure (SMILES) | GI50 [1] | GI50 [2] | GI50 [3] | GI50 [4] | GI50 [5] | GI50 [6] | GI50 [7] | GI50 [8] | GI50 [9] | GI50 [10] | GI50 [11] | GI50 [12] | GI50 [13] | GI50 [14] | GI50 [15] | GI50 [16] | GI50 [17] | GI50 [18] | GI50 [19] | GI50 [20]
CN1C(=O)CC(=O)N1/C(=C/c1ccccc1)c1ccccc1 | 18.2 µM (inactive) | 21.3 µM (inactive) | > 100 µM (inactive) | 55.6 µM (inactive) | 39.3 µM (inactive) | 14 µM (inactive) | 75.5 µM (inactive) | 48 µM (inactive) | > 100 µM (inactive) | > 100 µM (inactive) | > 100 µM (inactive) | 41 µM (inactive) | 17 µM (inactive) | 85.3 µM (inactive) | 49.8 µM (inactive) | 30.3 µM (inactive) | > 100 µM (inactive) | – | – | –
O=C(OCc1ccccc1)OOC(=O)OCc1ccccc1 | > 100 µM (inactive) | > 100 µM (inactive) | > 100 µM (inactive) | > 100 µM (inactive) | > 100 µM (inactive) | > 100 µM (inactive) | > 100 µM (inactive) | > 100 µM (inactive) | > 100 µM (inactive) | > 100 µM (inactive) | > 100 µM (inactive) | > 100 µM (inactive) | – | > 100 µM (inactive) | > 100 µM (inactive) | > 100 µM (inactive) | – | > 100 µM | > 100 µM (inactive) | > 100 µM (inactive)
CC[C@H]1CN2CCc3cc(OC)c(OC)cc3[C@@H]2C[C@@H]1C[C@H]1NCCc2cc(O)c(OC)cc21 | 0.0385 µM (active) | 0.025 µM (active) | 0.025 µM (active) | 0.025 µM (active) | 0.0377 µM (active) | 0.0354 µM (active) | – | 0.0282 µM (active) | 0.041 µM (active) | – | 0.025 µM (active) | – | – | 0.025 µM (active) | 0.025 µM (active) | 0.0502 µM (active) | – | 0.0491 µM | 0.025 µM (active) | 0.025 µM (active)
CN(C)C(=O)C(F)(F)C(c1ccc(Br)cc1)C1C(=O)N(C)C(=O)N(C)C1=O (stereo not given) | – | > 100 µM (inactive) | > 100 µM (inactive) | > 100 µM (inactive) | > 100 µM (inactive) | > 100 µM (inactive) | > 100 µM (inactive) | > 100 µM (inactive) | > 100 µM (inactive) | > 100 µM (inactive) | > 100 µM (inactive) | > 100 µM (inactive) | > 100 µM (inactive) | > 100 µM (inactive) | > 100 µM (inactive) | – | > 100 µM (inactive) | > 100 µM | – | –
Cc1ccc(C(=O)Cc2nc3c([nH]c2=O)c(C)nn3-c2ccccc2)c(C)c1 | > 10 µM (inactive) | 5.69 µM (inactive) | > 10 µM (inactive) | > 10 µM (inactive) | 3.25 µM (inactive) | – | 6.04 µM (inactive) | – | > 10 µM (inactive) | > 10 µM (inactive) | 6.59 µM (inactive) | > 10 µM (inactive) | > 10 µM (inactive) | 6.85 µM (inactive) | 2.29 µM (inactive) | > 10 µM (inactive) | – | > 10 µM | 9.04 µM (inactive) | > 10 µM (inactive)
CCOC(=O)C1=NN(c2ccc(Cl)cc2)C2=CC(C)=NN(C)C(=S)N21 | 44.8 µM (inactive) | > 100 µM (inactive) | 41.5 µM (inactive) | > 100 µM (inactive) | 56.5 µM (inactive) | 25.4 µM (inactive) | 30.8 µM (inactive) | > 100 µM (inactive) | > 100 µM (inactive) | – | 94.6 µM (inactive) | > 100 µM (inactive) | 47.1 µM (inactive) | 95.7 µM (inactive) | 37.6 µM (inactive) | > 100 µM (inactive) | – | 67.5 µM | > 100 µM (inactive) | 20.7 µM (inactive)
CC(=C(c1ccccc1)c1ccccc1)N1C(=O)CC(=O)N1C | 18.3 µM (inactive) | 40 µM (inactive) | 81.7 µM (inactive) | 55.5 µM (inactive) | 32.4 µM (inactive) | 15.4 µM (inactive) | 45.5 µM (inactive) | 29.2 µM (inactive) | 55.5 µM (inactive) | 27.5 µM (inactive) | > 100 µM (inactive) | > 100 µM (inactive) | 17 µM (inactive) | 35 µM (inactive) | 32.1 µM (inactive) | 38.4 µM (inactive) | > 100 µM (inactive) | – | – | –
COc1ccc2c(c1)c1c(n2CCN(C)C)-c2ccccc2CC1 | 11.9 µM (inactive) | 11.3 µM (inactive) | 15.7 µM (inactive) | 11.5 µM (inactive) | 16.6 µM (inactive) | – | 16.5 µM (inactive) | 16.7 µM (inactive) | 15 µM (inactive) | 16.4 µM (inactive) | 16.8 µM (inactive) | 12.5 µM (inactive) | 16.6 µM (inactive) | 15.6 µM (inactive) | 16.9 µM (inactive) | 13.2 µM (inactive) | 12.2 µM (inactive) | 13.7 µM | – | 18.5 µM (inactive)
C[Si](C)(C)/C(I)=C/CO | 25.1 µM (inactive) | 22 µM (inactive) | 29.6 µM (inactive) | 19.4 µM (inactive) | 24.7 µM (inactive) | – | 24 µM (inactive) | 19.7 µM (inactive) | 27.9 µM (inactive) | – | 23.3 µM (inactive) | 16.3 µM (inactive) | 19.3 µM (inactive) | 24.1 µM (inactive) | 38.3 µM (inactive) | 17 µM (inactive) | 20.4 µM (inactive) | 24.8 µM | – | 16.1 µM (inactive)
O=C1C2C3C=C4c5ccccc5N(c5ccccc5)C4(C2C(=O)N1Cc1ccccc1)C1C(=O)N(Cc2ccccc2)C(=O)C31 (stereo not given) | – | > 100 µM (inactive) | > 100 µM (inactive) | > 100 µM (inactive) | – | – | 39.5 µM (inactive) | > 100 µM (inactive) | > 100 µM (inactive) | > 10 µM (inactive) | > 100 µM (inactive) | > 100 µM (inactive) | 78.9 µM (inactive) | > 100 µM (inactive) | – | > 100 µM (inactive) | – | > 100 µM | > 100 µM (inactive) | –
O=S1(=O)CC#CC[C@@H](CO)[C@@H](CO)CC#CC1 | 43.1 µM (inactive) | 22.5 µM (inactive) | – | 59 µM (inactive) | > 100 µM (inactive) | > 100 µM (inactive) | 31.5 µM (inactive) | > 100 µM (inactive) | 72.3 µM (inactive) | > 100 µM (inactive) | 36.4 µM (inactive) | – | 69.3 µM (inactive) | > 100 µM (inactive) | > 100 µM (inactive) | 42.5 µM (inactive) | – | > 100 µM | 53.7 µM (inactive) | 17.9 µM (inactive)
CN(C)c1nc(N(C)C)nc(N(C)C23CC4CC(CC(C4)C2)C3)n1 | 17.1 µM (inactive) | 22.4 µM (inactive) | 31.7 µM (inactive) | 49.3 µM (inactive) | 17.1 µM (inactive) | 20 µM (inactive) | 21.8 µM (inactive) | 53.1 µM (inactive) | 46.5 µM (inactive) | 24 µM (inactive) | 34.4 µM (inactive) | 15.1 µM (inactive) | – | 39.3 µM (inactive) | 44.8 µM (inactive) | – | 32.6 µM (inactive) | > 100 µM | – | 16.9 µM (inactive)
Cc1cc(O)c2c(c1O)C(=O)C13C(=C(O)C4C(O)C1C1C(O)C3C(O)=C3C(=O)c5c(O)cc(C)c(O)c5C(=O)C341)C2=O (stereo not given) | 0.137 µM (active) | 0.035 µM (active) | 0.668 µM (active) | 0.0322 µM (active) | 3.56 µM (inactive) | 0.0491 µM (active) | 0.24 µM (active) | 0.0348 µM (active) | 0.106 µM (active) | 0.207 µM (active) | 0.0507 µM (active) | 0.0276 µM (active) | 0.106 µM (active) | 0.0311 µM (active) | 0.385 µM (active) | 0.0541 µM (active) | 0.199 µM (active) | 0.0367 µM | – | 0.185 µM (active)
O=C(CC(=O)C(F)(F)F)c1csc2ccccc12 | 23.7 µM (inactive) | 20.4 µM (inactive) | 37.2 µM (inactive) | 24.8 µM (inactive) | 40.9 µM (inactive) | 3.13 µM (inactive) | – | 19.1 µM (inactive) | 14.1 µM (inactive) | 22.5 µM (inactive) | 38.5 µM (inactive) | 38.5 µM (inactive) | 25 µM (inactive) | 62.2 µM (inactive) | – | 17.8 µM (inactive) | – | 29.2 µM | > 10 µM (inactive) | 23.9 µM (inactive)
O=C(O)c1ccc(C(=O)O)c2c(C(=O)O)ccc(C(=O)O)c12 | > 100 µM (inactive) | – | > 100 µM (inactive) | > 100 µM (inactive) | > 100 µM (inactive) | > 100 µM (inactive) | > 100 µM (inactive) | > 100 µM (inactive) | > 100 µM (inactive) | > 100 µM (inactive) | > 100 µM (inactive) | > 100 µM (inactive) | > 100 µM (inactive) | > 100 µM (inactive) | > 100 µM (inactive) | > 100 µM (inactive) | > 100 µM (inactive) | > 100 µM | – | > 100 µM (inactive)
CC=C/C=C/[C@@H]1O[C@](O)([C@H](CC)C(=O)NC/C=C/C=C(\C)[C@@H](OC)[C@@H](C)[C@@H]2O[C@H](/C=C/C=C/C=C(\C)C(=O)c3c(O)cc[nH]c3=O)[C@H](O)[C@@H]2O)[C@H](O)[C@H](O)C1(C)C | > 100 µM (inactive) | – | > 100 µM (inactive) | > 100 µM (inactive) | > 100 µM (inactive) | – | > 100 µM (inactive) | 92.7 µM (inactive) | > 100 µM (inactive) | > 100 µM (inactive) | > 100 µM (inactive) | – | – | > 100 µM (inactive) | > 100 µM (inactive) | 73.6 µM (inactive) | – | > 100 µM | 93.5 µM (inactive) | > 100 µM (inactive)
